In PubChem BioAssay (NCI):
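96-well plates; 48 h exposure; 5 concentrations. Endpoints by linear interpolation between flanking doses. Not reached: highest tested concentration assigned. Here, GI50 denotes the concentration required for 50% inhibition of growth. TGI: total growth inhibition.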

How the values were obtained:
Experiment in all cases: NCI tumour cell line growth inhibition, 48 h
[1] = test system: EKVX NSCLC
[2] = test system: HT29 colon
[3] = test system: NCI-H23 lung
[4] = test system: OVCAR-3 ovarian
[5] = test system: OVCAR-4 ovarian
[6] = test system: OVCAR-8 ovarian
[7] = test system: SF-539 CNS
[8] = test system: SK-MEL-2 melanoma
[9] = test system: SK-MEL-28 melanoma
[10] = test system: SK-MEL-5 melanoma

Row | SMILES | GI50 [1] | TGI [1] | GI50 [2] | TGI [2] | GI50 [3] | TGI [3] | GI50 [4] | TGI [4] | GI50 [5] | TGI [5] | GI50 [6] | TGI [6] | GI50 [7] | TGI [7] | GI50 [8] | TGI [8] | GI50 [9] | TGI [9] | GI50 [10] | TGI [10]
1 | CSc1nc2ccc(C)cc2cc1/C=C1/C=C(c2ccccc2)NC1=O | 13.1 µM | > 100 µM | 3.44 µM | > 100 µM | 10 µM | > 100 µM | 1.78 µM | 15.9 µM | 0.296 µM | 1.03 µM | 3.6 µM | 23.2 µM | 2.35 µM | 9.66 µM | 6.31 µM | 30.4 µM | 23.1 µM | > 100 µM | 21.3 µM | > 100 µM
2 | COC(=O)c1cc(C)[nH]c2c(C)cc3nc4ccccc4c3c12 | 6.5 µM | 20.5 µM | 3.11 µM | 13.5 µM | 7.54 µM | 26.4 µM | 10.3 µM | 22.1 µM | 12.5 µM | 25.3 µM | 6.35 µM | 19 µM | 12.4 µM | 26.4 µM | 13.2 µM | 28.8 µM | 14.6 µM | 28.3 µM | 5.97 µM | 19.2 µM
3 | Cc1cn2cc(-c3ccc4c(c3)CC(=O)N4)nc2s1 | 79.2 µM | > 100 µM | 85.5 µM | > 100 µM | > 100 µM | > 100 µM | > 100 µM | > 100 µM | > 100 µM | > 100 µM | > 100 µM | > 100 µM | > 100 µM | > 100 µM | > 100 µM | > 100 µM | > 100 µM | > 100 µM | 94 µM | > 100 µM
4 | C[C@@H](C[C@H](CCO)c1ccccc1)c1ccc2ccccc2c1 | 1.44 µM | 2.82 µM | 1.43 µM | 2.8 µM | 1.6 µM | 3.38 µM | 1.54 µM | 2.91 µM | 1.51 µM | 2.88 µM | 1.85 µM | 3.82 µM | 1.68 µM | 3.11 µM | 1.52 µM | 3.02 µM | 1.64 µM | 3.06 µM | 1.57 µM | 2.91 µM
5 | Oc1ccc(O)c(-n2cccn2)c1-n1cccn1 |  | > 100 µM |  | > 100 µM |  | > 100 µM |  | > 100 µM |  | > 100 µM |  | > 100 µM |  | > 100 µM |  | > 100 µM |  | > 100 µM |  | > 100 µM
6 | C=C(CN1CCN(c2ccc(F)c(Cl)c2)CC1)c1ccc(C(=O)Nc2ccccc2N)cc1 | 15.8 µM | > 100 µM | 2.32 µM | > 100 µM | 5.27 µM | 29.7 µM | 6.18 µM | 58.9 µM | > 100 µM | > 100 µM | 5.42 µM | > 100 µM | 5.79 µM | 26.2 µM | 6.12 µM | 64 µM | 0.529 µM | > 100 µM | 5.62 µM | 22.3 µM
7 | COc1ccc2c(c1)[nH]c1c3ccc(OC)cc3oc(=O)c21 |  | > 100 µM |  | > 100 µM |  | > 100 µM |  | > 100 µM |  | > 100 µM |  | > 100 µM |  | > 100 µM |  | > 100 µM |  | > 100 µM |  | > 100 µM
8 | C[C@H]1CC[C@@H]2[C@@H](C)[C@H]3[C@H](C[C@H]4[C@@H]5CC=C6C[C@@H](O)CC[C@]6(C)[C@H]5CC[C@]34C)N2C1 |  | > 100 µM |  | 43 µM |  | > 100 µM |  | > 100 µM |  | > 100 µM |  | > 100 µM |  | > 100 µM |  | > 100 µM |  | > 100 µM |  | > 100 µM
9 | CCN1CCC(O)(/C=C/c2ccccc2)C(C(=O)/C=C/c2ccccc2)C1 (stereo not given) |  | 11.8 µM |  | 3.73 µM |  | 10.3 µM |  | 8.9 µM |  | 8.01 µM |  | 4.55 µM |  | 3.76 µM |  | 7.25 µM |  | 3.91 µM |  | 12.2 µM
10 | CC1=C(SCCC(=O)OC(C[Se]C2=C(C)C(=O)c3ccccc3C2=O)C(=O)NC(C)(C)C)C(=O)c2ccccc2C1=O (stereo not given) | 1.58 µM | 4.48 µM | 1.78 µM | 3.39 µM | 1.13 µM | 2.69 µM | 1.43 µM | 2.74 µM | 1.45 µM | 2.76 µM | 1.28 µM | 2.74 µM | 1.44 µM | 2.75 µM | 2.04 µM | 3.65 µM | 1.78 µM | 3.16 µM | 1.52 µM | 2.86 µM
11 | COC(=O)C#CC(N)=O |  | > 100 µM |  | > 100 µM |  | > 100 µM |  | > 100 µM |  | > 100 µM |  | > 94.9 µM |  | > 100 µM |  | > 100 µM |  | 47.5 µM |  | > 100 µM
